These results are taken from patent US20220226508A1, “METHODS AND COMPOSITIONS FOR TREATING EPILEPSY” (THE REGENTS OF THE UNIVERSITY OF CALIFORNIA, priority 2019, published 2022).

Series [1] concerns scn1lab mutant zebrafish. Description: Locomotion assay of high-velocity seizure-like swim behavior. The class given is in vivo, zebrafish (Danio rerio). An excerpt: Zebrafish maintenance. Zebrafish were raised under standard laboratory conditions in accordance with requirements outlined in the Guide for the Care and Use of Animals (ebrary Inc., 2011) and experiments were approved by the Institutional Animal Care and Use Committee (protocol #AN108659-03). Embryos were obtained by natural spawning of scn1lab (didy^s552) heterozygous animals that had been outcrossed to TL strain. Homozygous scn1lab mutants (n=2500) have dispersed melanosomes and appear visibly darker by 3 dpf compared to WT larvae.
Seizure monitoring. At 5 dpf individual zebrafish larvae were placed into a single well of a clear flat-bottomed 96-well microplate containing embryo media. Larvae were selected randomly as sex determination is not possible at this stage of development. All drug screening experiments were conducted in an unbiased manner by investigators blinded to the test compounds and all files coded for post hoc analysis. Microplates were placed inside the DanioVision and acclimated for 20 min at room temperature. Locomotion plots were obtained for each well at a recording epoch of 10 min using EthoVision XT software (DanioVision, Noldus Information Technology). Seizure scoring was performed using the following three-stage scale established for pentylenetetrazole-induced seizures: Stage 0, no or very little swim activity; Stage I, increased, brief bouts of swim activity; Stage II, rapid “whirlpool-like” circling swim behavior; and Stage III, paroxysmal whole-body clonus-like convulsions, and a brief loss of posture. WT fish are typically scored at Stage 0 or I. Plots were analyzed for distance travelled (in millimeters) and mean velocity (in millimeters per second). After 90 mins of drug exposure larvae were examined for toxic side-effects. Compounds that decreased or stopped the larva heartbeat, or reduced or eliminated the escape response when touched, were considered toxic.
Statistics. Data are presented as the mean±standard error of the mean (SEM), unless otherwise stated. For behavior analysis, the threshold for a change in mean swim velocity ≥40% (>1.5×SD of 250 control treated scn1lab) is considered significant. For comparison between more than two groups one-way ANOVA analysis was used. […] Differences considered statistically significant are indicated with asterisks (*P<0.05; **P<0.01).

For series [2], the system named is scn1lab mutant zebrafish. Kind of series: Local field potential (LFP) electrophysiology of electrographic seizure events. The class given is in vivo, zebrafish (Danio rerio). How it is done: For electrophysiology studies, zebrafish larvae were anesthetized with cold and immobilized in 1.2% agarose; local field potential (LFP) recordings were obtained from forebrain or optic tectum structures using a single-electrode approach, as previously described (Baraban, S. C. et al., Neuroscience, 131, 759-768, 2005). Agarose-embedded LFP recording sessions of 10 min were obtained at 1 kHz. Epileptiform events were identified post hoc and defined as multi-spike or poly-spike upward or downward membrane deflections greater than 3× baseline noise level and 150-250 ms in duration (interictal-like) or greater than 5× baseline noise, multi-spike and >500 ms in duration (ictal-like); both events were counted using threshold detection settings in Clampfit (Molecular Devices; Sunnyvale, Calif.). During electrophysiology experiments larvae were continuously monitored for blood flow and heart rate using an Axiocam digital camera at video frame rate.
Monitoring electrographic brain activity to confirm seizure suppression is an essential assay to eliminate false positives from behavioral testing (Griffin, A. et al., Frontiers in Pharmacology, 9, 2018). By placing a microelectrode into a visually identified brain region of an agar-immobilized zebrafish larval, stable local field potential (LFP) recordings can be monitored for several hours (Baraban, S. C. et al., Nat Commun, 4, 2410, 2013). At 5 dpf LFP recordings of scn1Lab zebrafish larvae show an average of 250 abnormal electrographic seizure events during a 10 min recording epoch.

Series [3] deals with T1, human 5-HT2AR (Homo sapiens, UniProt P28223).
T1 construct: expressed in transfected cells
T1 sequence (P28223 whole entry): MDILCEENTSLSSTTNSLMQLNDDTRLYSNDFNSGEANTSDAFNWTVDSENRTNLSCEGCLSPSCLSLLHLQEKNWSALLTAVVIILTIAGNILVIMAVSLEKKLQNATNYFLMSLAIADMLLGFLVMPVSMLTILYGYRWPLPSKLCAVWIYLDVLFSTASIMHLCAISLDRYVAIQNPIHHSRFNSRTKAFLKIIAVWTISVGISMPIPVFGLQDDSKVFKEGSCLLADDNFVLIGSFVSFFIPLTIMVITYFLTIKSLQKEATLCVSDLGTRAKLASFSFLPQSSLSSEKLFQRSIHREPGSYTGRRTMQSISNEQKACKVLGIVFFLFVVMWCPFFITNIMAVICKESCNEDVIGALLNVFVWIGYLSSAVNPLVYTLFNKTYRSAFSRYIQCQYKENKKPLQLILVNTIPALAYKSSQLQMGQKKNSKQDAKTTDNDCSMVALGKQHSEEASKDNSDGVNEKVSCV
The conditions noted are these: read-out: binding affinity (Ki) 5-HT2A / 5-HT2AR, cited from earlier work.

Series [4] deals with T2, 5-HT1A (Homo sapiens, UniProt P08908).
T2 sequence (P08908 1-422): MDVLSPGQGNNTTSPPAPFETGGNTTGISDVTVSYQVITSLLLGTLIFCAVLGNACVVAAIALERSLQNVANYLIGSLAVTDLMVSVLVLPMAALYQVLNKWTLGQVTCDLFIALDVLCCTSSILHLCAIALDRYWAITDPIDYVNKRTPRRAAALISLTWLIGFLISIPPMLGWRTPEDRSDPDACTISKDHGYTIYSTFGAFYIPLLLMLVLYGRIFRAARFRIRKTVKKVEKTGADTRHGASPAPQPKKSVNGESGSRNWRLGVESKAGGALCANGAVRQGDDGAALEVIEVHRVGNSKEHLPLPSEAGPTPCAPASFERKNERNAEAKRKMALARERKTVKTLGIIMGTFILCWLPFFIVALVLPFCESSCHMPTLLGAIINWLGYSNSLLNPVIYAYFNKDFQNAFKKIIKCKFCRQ
Particulars: read-out: binding affinity (Ki) 5-HT1A; cited from earlier work.

Series [5] has as its target 5-HT7 (Homo sapiens, UniProt P34969). Particulars: read-out: binding affinity (Ki) 5-HT7; cited from earlier work.
The target in series [6] is 5-HT Transporter (Homo sapiens, UniProt P31645). Particulars: read-out: binding affinity (Ki) 5-HT Transporter; cited from earlier work.
Chain of 5-HT Transporter (P31645 whole entry, species assumed): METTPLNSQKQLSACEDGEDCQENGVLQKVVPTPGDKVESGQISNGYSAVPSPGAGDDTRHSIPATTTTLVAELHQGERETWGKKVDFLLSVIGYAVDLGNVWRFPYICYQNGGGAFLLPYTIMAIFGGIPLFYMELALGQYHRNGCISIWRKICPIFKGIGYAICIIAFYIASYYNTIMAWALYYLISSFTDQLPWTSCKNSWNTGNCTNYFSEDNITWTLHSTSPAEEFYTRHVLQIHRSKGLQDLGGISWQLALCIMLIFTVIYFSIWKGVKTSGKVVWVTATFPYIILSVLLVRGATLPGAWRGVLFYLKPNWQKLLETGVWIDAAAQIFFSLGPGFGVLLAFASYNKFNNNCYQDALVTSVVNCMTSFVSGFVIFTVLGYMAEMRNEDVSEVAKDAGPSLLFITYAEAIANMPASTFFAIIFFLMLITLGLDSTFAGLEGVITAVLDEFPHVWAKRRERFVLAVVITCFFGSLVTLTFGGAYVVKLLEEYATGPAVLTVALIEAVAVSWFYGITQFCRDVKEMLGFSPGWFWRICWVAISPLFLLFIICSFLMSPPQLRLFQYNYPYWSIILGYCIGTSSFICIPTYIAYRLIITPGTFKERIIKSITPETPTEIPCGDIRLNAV
Series [7] addresses T1, human 5-HT2AR. Kind of series: biochemical. The series is classed as binding. Particulars: read-out: binding affinity (Ki) 5-HT2AR. The procedure: (§1) Receptor Binding Assays. In vitro binding assay and Ki data were performed by the US National Institute of Mental Health Psychoactive Drug Screening Program (NIMH PDSP). Drugs were screened against recombinant, stably expressed human 5-HT2AR, 5-HT2BR, 5-HT2CR and H1. For specific binding assays please refer to detailed procedures at https://pdspdb.unc.edu/pdspWeb/ (Besnard, J. et al., Nature, 492, 215-220, 2012).

For series [8], the target named is T3, human 5-HT2BR (Homo sapiens, UniProt P41595).
T3 construct: expressed in transfected cells
T3 sequence (P41595 whole entry): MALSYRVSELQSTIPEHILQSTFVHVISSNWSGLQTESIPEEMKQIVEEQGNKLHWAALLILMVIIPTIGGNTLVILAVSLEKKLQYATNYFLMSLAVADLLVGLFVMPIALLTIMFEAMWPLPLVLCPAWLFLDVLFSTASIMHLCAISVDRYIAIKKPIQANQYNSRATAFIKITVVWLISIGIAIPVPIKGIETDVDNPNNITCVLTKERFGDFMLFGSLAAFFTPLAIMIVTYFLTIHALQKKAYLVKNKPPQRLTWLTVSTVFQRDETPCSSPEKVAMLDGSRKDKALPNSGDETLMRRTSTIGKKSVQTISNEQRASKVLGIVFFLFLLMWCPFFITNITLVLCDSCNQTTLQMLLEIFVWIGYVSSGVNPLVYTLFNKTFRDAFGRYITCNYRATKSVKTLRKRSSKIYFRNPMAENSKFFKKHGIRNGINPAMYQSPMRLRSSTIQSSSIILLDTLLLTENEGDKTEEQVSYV
Description: biochemical. The series is classed as binding. The conditions noted are these: read-out: binding affinity (Ki) 5-HT2BR. The procedure:
as §1

Series [9] deals with T4, human 5-HT2CR (Homo sapiens, UniProt P28335).
T4 construct: expressed in transfected cells
T4 sequence (P28335 33-458): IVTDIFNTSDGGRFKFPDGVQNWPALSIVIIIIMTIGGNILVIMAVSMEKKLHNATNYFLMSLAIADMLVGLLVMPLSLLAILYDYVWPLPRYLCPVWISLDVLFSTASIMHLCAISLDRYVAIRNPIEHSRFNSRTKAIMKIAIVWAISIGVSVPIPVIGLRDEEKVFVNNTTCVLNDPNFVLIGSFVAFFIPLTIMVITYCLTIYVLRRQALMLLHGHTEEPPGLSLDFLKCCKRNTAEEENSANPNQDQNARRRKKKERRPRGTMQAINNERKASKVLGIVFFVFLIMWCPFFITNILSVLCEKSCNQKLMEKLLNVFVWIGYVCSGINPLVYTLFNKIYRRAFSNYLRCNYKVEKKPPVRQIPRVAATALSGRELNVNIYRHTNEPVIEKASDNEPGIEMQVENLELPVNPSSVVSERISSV
Kind of series: Radioligand binding assay (NIMH PDSP), 5-HT2CR. The conditions noted are these: read-out: binding affinity (Ki) 5-HT2CR. How it is done: as §1

Series [10] deals with human 5-HT2R. Description: Radioligand binding assays (NIMH PDSP), 5-HT2R subtypes together. Particulars: 5-HT2AR, 5-HT2BR, 5-HT2CR. The procedure:
Receptor Binding Assays. In vitro binding assay and Ki data were performed by the US National Institute of Mental Health Psychoactive Drug Screening Program (NIMH PDSP). Drugs were screened against recombinant, stably expressed human 5-HT2AR, 5-HT2BR, 5-HT2CR and H1.

The target in series [11] is T5, human H1 receptor (Homo sapiens, UniProt P35367). Kind of series: Radioligand binding assay (NIMH PDSP), H1. Details: expressed in transfected cells. Particulars: read-out: binding affinity (Ki) H1. The procedure: as §1
T5 sequence (P35367 whole entry): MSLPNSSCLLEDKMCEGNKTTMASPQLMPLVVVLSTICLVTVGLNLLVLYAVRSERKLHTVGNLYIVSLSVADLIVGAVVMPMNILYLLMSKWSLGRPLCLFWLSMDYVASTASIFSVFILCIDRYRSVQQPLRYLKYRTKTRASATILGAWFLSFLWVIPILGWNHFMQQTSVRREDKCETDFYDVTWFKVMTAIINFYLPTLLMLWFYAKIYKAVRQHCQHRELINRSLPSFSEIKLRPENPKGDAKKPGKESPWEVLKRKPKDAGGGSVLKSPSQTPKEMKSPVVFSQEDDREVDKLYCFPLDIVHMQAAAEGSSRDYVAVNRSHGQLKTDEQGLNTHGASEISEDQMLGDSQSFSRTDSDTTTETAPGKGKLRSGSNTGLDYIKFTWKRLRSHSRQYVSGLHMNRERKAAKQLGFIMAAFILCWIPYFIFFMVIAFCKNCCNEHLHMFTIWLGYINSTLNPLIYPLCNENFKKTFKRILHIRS
The nature of series [12]: Solubility in the screening medium. The series is classed as physicochemical. Particulars: 250 μM. How it is done: 10 mM compound stock solutions were made in DMSO and then diluted in embryo medium for assays.
Series [13] concerns the target 5-HT5 (Homo sapiens, UniProt P47898). The conditions noted are these: read-out: binding affinity (Ki) 5-HT5; cited from earlier work.
Series [14] has as its target 5-HT6 (Homo sapiens, UniProt P50406). Particulars: read-out: binding affinity (Ki) 5-HT6; cited from earlier work.
The target of series [15] is Norepinephrine Transporter (Homo sapiens, UniProt P23975). Particulars: read-out: binding affinity (Ki) Norepinephrine Transporter; cited from earlier work.
Chain of Norepinephrine Transporter (P23975 whole entry): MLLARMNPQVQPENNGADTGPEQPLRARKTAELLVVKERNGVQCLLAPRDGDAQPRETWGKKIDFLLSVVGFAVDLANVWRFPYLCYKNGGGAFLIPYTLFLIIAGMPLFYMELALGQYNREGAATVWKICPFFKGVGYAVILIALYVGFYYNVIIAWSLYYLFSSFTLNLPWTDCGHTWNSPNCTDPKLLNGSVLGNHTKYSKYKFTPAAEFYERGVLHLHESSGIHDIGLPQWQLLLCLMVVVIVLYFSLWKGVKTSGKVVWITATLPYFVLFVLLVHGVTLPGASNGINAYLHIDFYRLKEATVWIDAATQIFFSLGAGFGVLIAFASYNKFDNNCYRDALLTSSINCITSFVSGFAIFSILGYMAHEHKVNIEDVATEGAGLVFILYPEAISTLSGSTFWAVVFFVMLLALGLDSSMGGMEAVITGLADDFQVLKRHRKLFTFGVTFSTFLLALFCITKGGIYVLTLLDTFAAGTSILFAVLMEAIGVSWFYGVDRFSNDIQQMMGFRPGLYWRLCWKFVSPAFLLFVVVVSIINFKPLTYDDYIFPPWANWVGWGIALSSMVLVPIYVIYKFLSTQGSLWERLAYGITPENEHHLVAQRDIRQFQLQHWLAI
The target of series [16] is T3, human 5-HT2BR. The conditions noted are these: known drugs and commercial compounds; read-out: binding affinity (Ki) 5-HT2B / 5-HT2BR; cited from earlier work.
For series [17], the target named is T4, human 5-HT2CR. The conditions noted are these: known drugs and commercial compounds; read-out: binding affinity (Ki) 5-HT2C / 5-HT2CR; cited from earlier work.
For series [18], the target named is Histamine H3 (Homo sapiens, UniProt Q9Y5N1). The conditions noted are these: read-out: binding affinity (Ki) Histamine H3; cited from earlier work.
Chain of Histamine H3 (Q9Y5N1 whole entry): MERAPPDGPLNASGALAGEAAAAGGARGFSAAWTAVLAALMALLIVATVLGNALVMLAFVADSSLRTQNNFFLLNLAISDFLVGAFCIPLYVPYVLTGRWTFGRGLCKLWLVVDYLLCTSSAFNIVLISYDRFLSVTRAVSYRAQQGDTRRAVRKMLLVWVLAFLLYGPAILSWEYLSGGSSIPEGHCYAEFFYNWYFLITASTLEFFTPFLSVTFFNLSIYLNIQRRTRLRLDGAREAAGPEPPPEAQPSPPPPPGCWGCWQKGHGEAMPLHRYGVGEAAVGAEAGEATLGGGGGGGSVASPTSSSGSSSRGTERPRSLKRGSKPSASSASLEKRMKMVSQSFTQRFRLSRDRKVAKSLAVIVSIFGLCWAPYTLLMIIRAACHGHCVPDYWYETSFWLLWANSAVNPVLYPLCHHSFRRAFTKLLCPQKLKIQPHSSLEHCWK
In series [19] the target is T5, human H1 receptor. The conditions noted are these: read-out: binding affinity (Ki) Histamine H1; cited from earlier work.
[20] abbreviates: clemizole analogs, recombinant human receptor.

pKi: −log10 of the molar value. “Also recorded” adds a separate entry of the source. Like-named read-outs stand apart in the source and are kept apart here.

Chain of 5-HT7 (P34969 whole entry, species assumed): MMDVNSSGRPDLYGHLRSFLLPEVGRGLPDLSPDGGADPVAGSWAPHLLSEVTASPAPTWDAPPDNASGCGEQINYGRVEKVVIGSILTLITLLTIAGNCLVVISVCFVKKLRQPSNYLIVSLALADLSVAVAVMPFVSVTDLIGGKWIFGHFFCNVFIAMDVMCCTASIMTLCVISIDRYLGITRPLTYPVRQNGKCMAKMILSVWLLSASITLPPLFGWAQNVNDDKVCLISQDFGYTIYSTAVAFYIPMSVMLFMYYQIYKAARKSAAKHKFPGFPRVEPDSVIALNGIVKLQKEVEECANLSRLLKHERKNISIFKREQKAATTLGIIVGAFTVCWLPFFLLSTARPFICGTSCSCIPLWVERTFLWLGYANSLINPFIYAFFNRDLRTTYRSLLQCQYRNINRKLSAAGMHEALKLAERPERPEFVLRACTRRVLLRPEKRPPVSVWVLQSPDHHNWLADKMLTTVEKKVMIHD
Chain of 5-HT5 (P47898 whole entry, species assumed): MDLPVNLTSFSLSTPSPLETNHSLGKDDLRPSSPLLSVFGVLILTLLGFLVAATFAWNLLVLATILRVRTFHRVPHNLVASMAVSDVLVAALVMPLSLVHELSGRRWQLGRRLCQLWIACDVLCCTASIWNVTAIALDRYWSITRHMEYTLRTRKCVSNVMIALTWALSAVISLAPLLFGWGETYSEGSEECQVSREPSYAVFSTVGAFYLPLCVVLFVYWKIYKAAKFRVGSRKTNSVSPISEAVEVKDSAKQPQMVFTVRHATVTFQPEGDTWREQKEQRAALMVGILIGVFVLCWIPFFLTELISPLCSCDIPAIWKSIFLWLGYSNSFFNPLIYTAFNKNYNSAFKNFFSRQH
Chain of 5-HT6 (P50406 whole entry, species assumed): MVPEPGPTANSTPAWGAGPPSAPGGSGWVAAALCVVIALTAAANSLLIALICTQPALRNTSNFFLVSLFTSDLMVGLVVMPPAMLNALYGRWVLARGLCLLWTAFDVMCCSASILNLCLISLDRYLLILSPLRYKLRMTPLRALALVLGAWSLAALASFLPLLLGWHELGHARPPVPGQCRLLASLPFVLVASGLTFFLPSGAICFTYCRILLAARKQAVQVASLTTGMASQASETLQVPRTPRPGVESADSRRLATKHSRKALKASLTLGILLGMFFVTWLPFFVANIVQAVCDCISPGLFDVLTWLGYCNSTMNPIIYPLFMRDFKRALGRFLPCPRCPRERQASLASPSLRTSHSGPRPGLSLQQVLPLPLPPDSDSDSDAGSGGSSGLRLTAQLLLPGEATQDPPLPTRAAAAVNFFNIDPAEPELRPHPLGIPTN

On to `CC(N)Cc1ccc2ccoc2c1` (stereo not drawn) [Compound 6-APB, 6-APB], for which the “effect on seizure-like swim behavior (change in mean velocity)” value in series [1] (commercial 5-HT2BR/dopamine agonists, three concentrations, 30 and 90 min exposure, threshold ≥40%) is “suppressed convulsive swim behaviors in a concentration-dependent manner”. In [2] (250 μM, 10 min LFP recording, 5 dpf larvae), the “frequency of electrographic seizure (epileptiform) events” value is “significant changes in the frequency of events; also recorded: significantly suppressed the frequency of electrographic seizure events”. The pKi in series [3] (known drugs and commercial compounds) was 5.72; in [4], 5.89; in series [5], 6.81; in [6] it was 5.57.
Consider `FC1(F)CCC(Cn2c(CN3CCCC3)nc3ccccc32)CC1` [Compound 17], for which the pKi was < 5.00 in series [7], < 5.00 in series [8], < 5.00 in series [9] and 6.86 in series [11]. Also, the “binding to any human 5-HT2R” value in series [10] is listed as “no significant binding”.
Consider `c1cn(CC2CCCCC2)c(CN2CCCC2)n1` [Compound 21], for which the pKi in series [7], in series [8], in [9] and in series [11] was < 5.00 in each case. Also, the “binding to any human 5-HT2R” value in [10] is on record as “no significant binding”.
Turning to `CC(C)(C)OC(=O)N1CCN(Cc2nc3ccccc3n2Cc2ccc(Cl)cc2)CC1` [Compound 25, tert-Butyl 4-({1-[(4-chlorophenyl)methyl]-1H-benzimidazol-2-yl}methyl)piperazine-1-carboxylate], the pKi is 5.62 in series [7] (setting [20]), 6.32 in series [8] (setting [20]), 5.64 in series [9] (setting [20]) and 7.12 in series [11] (setting [20]). Further, the going into solution entry in series [12] was “failed to go into solution”.
`C[C@H]1CNCCc2ccc(Cl)cc21` [LOR]: the pKi in [4] is 6.15; in series [13], 5.43; in [14], 5.70; in [5], 6.20; in [15] it was 5.85.
For the compound `Clc1ccc(Cn2c(CN3CCCC3)nc3ccccc32)cc1` [clemizole], the “inhibition of spontaneous convulsive behaviors” value in series [1] (phenotype-based screen) is “effective inhibitor”. In addition, the “inhibition of electrographic seizures” value in [2] (phenotype-based screen) was “effective inhibitor”. In addition, the pKi is 6.62 in [3]; 7.60 in [16]; 6.71 in series [17]; 6.40 in [18]; 8.89 in series [19].
